Measurements published in a compilation of properties of binary mixtures (doi:10.1016/j.jct.2020.106383).

Assay: xn = mol fraction of the nth substance listed
Settings: 100 kPa

CCOC(C)=O + CCCC[n+]1ccn(C)c1.O=S(=O)([N-]S(=O)(=O)C(F)(F)F)C(F)(F)F
speed of sound [m/s]
Settings | x2 = 0 | x2 = 0.1045 | x2 = 0.2067 | x2 = 0.3058 | x2 = 0.4012 | x2 = 0.5002 | x2 = 0.6065 | x2 = 0.7081 | x2 = 0.7932 | x2 = 0.9087
298.15 K | 1143.2 | – | 1172 | 1182.9 | 1192 | – | 1207.6 | 1213.7 | 1218.2 | –
303.15 K | 1120.8 | 1137.6 | 1151.9 | 1164 | 1174.2 | 1183.4 | 1192 | 1199.3 | – | 1211.6
308.15 K | 1098.7 | 1116.7 | 1132.1 | 1145.3 | – | 1166.9 | 1176.7 | 1185.1 | 1191.5 | 1199.6
313.15 K | 1076.4 | 1095.5 | 1112.1 | 1126.5 | 1138.8 | 1150.3 | 1161.3 | – | – | 1187.7
318.15 K | – | 1074.5 | – | 1107.8 | 1121.2 | – | 1146.1 | – | 1165.2 | –
323.15 K | 1032 | 1053.5 | 1072.5 | – | 1103.7 | 1117.4 | 1130.9 | 1142.8 | – | 1164.3

CCCC[n+]1ccn(C)c1.O=S(=O)([N-]S(=O)(=O)C(F)(F)F)C(F)(F)F + CCOC(C)=O
x1 = 1
Settings | speed of sound [m/s]
298.15 K | 1227.9
303.15 K | 1216.8
308.15 K | 1205.8
313.15 K | 1195
318.15 K | 1184.2
323.15 K | 1173.6
